Experiment: GC/MS analysis of incorporation of methyl jasmonate in nanocarriers
Assay type: physicochemical
Experimental: The class of dendrimers used was PAMAM. […] The experimental data was obtained using a GC with a column temperature of 50° C., the injection temperature of 250° C., Flow control mode linear, total flow 50.0 mL/min., and column flow of 1.70 mL/min. The percentage relative to the incorporation of methyl jasmonate inside β-CD was 98-99% and for dendrimer PAMAM it was more than 95%. Comparing peak 1 with 2, peak 2 is methyl Jasmonate alone and peak 1 is the inclusion compounds formed. In both cases peak 1 is clearly different and proves the molecular association.

CC/C=C\CC1C(=O)CCC1CC(=O)OC (centres unmarked) [methyl jasmonate]
percentage relative to the incorporation of methyl jasmonate (dendrimer PAMAM): more than 95% | percentage relative to the incorporation of methyl jasmonate (inside β-CD): 98-99%
